One experiment concerns the target T1, rat UT-A1 (Rattus norvegicus, UniProt Q62668).
T1 sequence (Q62668 1-929): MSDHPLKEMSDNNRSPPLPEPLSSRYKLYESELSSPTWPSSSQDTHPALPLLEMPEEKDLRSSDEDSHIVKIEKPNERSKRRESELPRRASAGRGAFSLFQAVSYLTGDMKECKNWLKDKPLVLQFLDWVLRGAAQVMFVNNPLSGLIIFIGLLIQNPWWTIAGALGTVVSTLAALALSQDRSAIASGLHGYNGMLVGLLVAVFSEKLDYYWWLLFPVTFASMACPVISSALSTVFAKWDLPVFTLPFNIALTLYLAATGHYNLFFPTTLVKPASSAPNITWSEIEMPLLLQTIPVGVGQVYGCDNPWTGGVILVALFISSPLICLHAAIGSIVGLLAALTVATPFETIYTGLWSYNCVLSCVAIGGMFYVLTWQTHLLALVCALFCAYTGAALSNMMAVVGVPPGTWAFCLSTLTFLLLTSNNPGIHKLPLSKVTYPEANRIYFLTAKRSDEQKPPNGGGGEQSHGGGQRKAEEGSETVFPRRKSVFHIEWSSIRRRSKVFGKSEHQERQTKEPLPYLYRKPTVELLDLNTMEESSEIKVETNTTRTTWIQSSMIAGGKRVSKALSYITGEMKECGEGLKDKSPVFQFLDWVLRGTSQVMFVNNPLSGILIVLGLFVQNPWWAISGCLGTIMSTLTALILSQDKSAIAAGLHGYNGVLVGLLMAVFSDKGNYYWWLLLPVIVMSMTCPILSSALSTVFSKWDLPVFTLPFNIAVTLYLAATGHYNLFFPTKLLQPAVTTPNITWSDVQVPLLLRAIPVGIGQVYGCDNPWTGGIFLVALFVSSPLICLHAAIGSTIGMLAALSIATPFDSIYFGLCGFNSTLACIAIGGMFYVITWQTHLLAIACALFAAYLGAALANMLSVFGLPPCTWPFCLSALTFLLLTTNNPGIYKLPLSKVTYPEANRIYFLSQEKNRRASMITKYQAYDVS
Nature of the experiment: UT-A1-facilitated urea flux across MDCK-UT-A1 cell layers. It counts as cell-based. Particulars: forskolin 10 μM; phloretin 0.7 mM. How it is done:
Concentration-inhibition studies were performed to study the effect of the active mouse UT-B inhibitors on urea transport by UT-A. The amino acid sequences of UT-B and UT-A urea transporter isoforms share significant similarity. The cells used in these studies were MDCK cells that expressed rat UT-A1. MDCK-UT-A1-expressing cells were grown on collagen-coated porous filters until they were electrically tight, at which point 15 mM urea was introduced into buffer bathing the basolateral cell surface. […]
UT-A1-facilitated urea flux in the basolateral-to-apical direction across unstimulated and forskolin-stimulated MDCK-UT-A1 cell layers was measured in response to a 15-mM urea gradient. […] Five μL samples of apical fluid were collected at specified times during incubation at 37° C., and urea concentration was determined using a commercial kit based on chromogenic urea complexation at 520-nm wavelength (Quantichrom™ Urea Assay Kit, BioAssay Systems, Hayward, Calif.). […] Aforsk, and Aphlor were averaged absorbance values (at 520 nm) for cultures treated with forskolin and forskolin+phloretin, respectively, and Atest were values from cultures treated with forskolin+test compound.

For a further experiment, the system named is RBCs from wild-type mice. Description: Osmotic water permeability, RBCs from wild-type mice (stopped-flow). The format is cell-based, mouse. The protocol: RBC urea and water permeabilities were assayed by stopped-flow light scattering using a Hi-Tech Sf-51 instrument (Wiltshire, UK). For measurement of urea permeability, dilutions of whole blood (human or mouse; see Example 1) in PBS (hematocrit: approximately 0.5%) were incubated with test compounds for 5 min and then subjected to a 250-mM inwardly directed gradient of urea. After an initial osmotic shrinking phase, the kinetics of increasing cell volume caused by urea influx were measured as the time-course of 90° scattered light intensity at 530 nm, with increasing cell volume resulting in reduced scattered light intensity. As a positive control, 0.7 mM phloretin was added to the RBC suspension prior to stopped-flow experiments. Measurements of water permeability were carried out similarly, with sucrose (cell-impermeant) used instead of urea to establish a 250-mM osmotic gradient. As a positive control, HgCl2 (0.3 mM) was added to the RBC suspension prior to stopped-flow measurements. Osmotic water permeability coefficients (Pf) were computed from light scattering data as described (van Hoek et al., J Biol. Chem. 267:18267-69 (1992)).
This example describes chemical knock-out of UT-B by UT-B inhibitors in RBCs and the effect on UT-B-facilitated water transport. […] Osmotic water permeability was measured by stopped-flow light scattering in RBCs from wild-type and AQP1-null mice as shown in FIG. 8A. […] AQP1-null RBCs had greater than 5-fold reduced Pf compared to wild-type RBCs.

The subject of the next experiment is UT. The following applies: cited from earlier work.

Structures are written as SMILES. Where only a bound is given, the exact number is not on record here.

Regarding `O=C(CCc1ccc(O)cc1)c1c(O)cc(O)cc1O` [phloretin, reference compound], the “effect on UT-A1-facilitated urea transport” value at rat UT-A1 was “inhibited”. In addition, in the experiment with RBCs from wild-type mice (0.7 mM, wild-type mouse RBCs), the “reduction in Pf” value is recorded as “small but significant reduction”. The “effect on water transport in RBCs from wild-type mice” value in the experiment with RBCs from wild-type mice (10° C., 250-mM sucrose gradient) is reported as “little effect”. For the same molecule, in the experiment on UT, the “concentration exhibiting activity as UT inhibitor” value is given as more than 0.5 mM.

Values taken from US8394788B2, “Phenylsulfoxyoxazole compound inhibitors of urea transporters” (The Regents of the University of California, priority 2006, dated 2013).
